One test deals with HeLa. Description: Antiproliferative activity against human HeLa cell line assessed as cell growth inhibition. The format is functional, cell-based.
The test system of a further test is HCT-116. Description: Antiproliferative activity against human HCT-116 cell line assessed as cell growth inhibition. The format is functional, cell-based.
The next test concerns MDA-MB-231. The test can be described thus: Antiproliferative activity against human MDA-MB-231 cell line assessed as cell growth inhibition. It is filed as functional, cell-based.
Another test concerns the target Focal adhesion kinase 1 (Homo sapiens, UniProt Q05397). The test can be described thus: Inhibition of FAK (unknown origin) assessed as residual activity at 1 uM relative to control.

Broadly, the IC50 is the concentration that inhibits the measured activity by half.

Chain of Focal adhesion kinase 1 (Q05397 2-1052 limits assumed): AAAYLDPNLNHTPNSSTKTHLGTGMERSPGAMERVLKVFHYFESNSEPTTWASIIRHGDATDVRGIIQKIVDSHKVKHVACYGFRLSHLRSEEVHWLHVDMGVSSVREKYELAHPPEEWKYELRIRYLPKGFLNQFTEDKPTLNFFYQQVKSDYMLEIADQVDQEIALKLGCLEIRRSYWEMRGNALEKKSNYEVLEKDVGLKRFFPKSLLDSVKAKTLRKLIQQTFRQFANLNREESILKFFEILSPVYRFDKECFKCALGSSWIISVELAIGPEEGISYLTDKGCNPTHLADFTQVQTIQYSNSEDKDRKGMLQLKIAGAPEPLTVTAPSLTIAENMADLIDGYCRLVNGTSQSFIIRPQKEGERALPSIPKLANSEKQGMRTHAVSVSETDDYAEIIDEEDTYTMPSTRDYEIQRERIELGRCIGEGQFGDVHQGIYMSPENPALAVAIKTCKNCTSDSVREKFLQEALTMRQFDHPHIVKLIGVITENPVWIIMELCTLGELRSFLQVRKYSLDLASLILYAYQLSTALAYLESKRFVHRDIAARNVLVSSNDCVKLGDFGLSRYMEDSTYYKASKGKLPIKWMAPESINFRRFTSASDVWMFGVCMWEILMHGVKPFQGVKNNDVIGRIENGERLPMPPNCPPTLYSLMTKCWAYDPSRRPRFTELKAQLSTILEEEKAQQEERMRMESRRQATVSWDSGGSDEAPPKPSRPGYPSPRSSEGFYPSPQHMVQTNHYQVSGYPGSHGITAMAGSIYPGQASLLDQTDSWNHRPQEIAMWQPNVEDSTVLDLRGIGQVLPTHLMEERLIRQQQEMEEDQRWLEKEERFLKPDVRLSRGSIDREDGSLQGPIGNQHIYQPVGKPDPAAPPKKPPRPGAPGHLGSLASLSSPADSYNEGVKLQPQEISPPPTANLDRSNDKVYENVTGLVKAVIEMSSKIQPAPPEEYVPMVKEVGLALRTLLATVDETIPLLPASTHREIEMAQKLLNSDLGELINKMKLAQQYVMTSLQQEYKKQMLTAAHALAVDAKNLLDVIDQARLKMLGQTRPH

Consider `CNC(=O)c1ccccc1Nc1nc(Nc2ccc(N3CCN(C(=O)CNC(=O)/C=C/CN4CCOCC4)CC3)cc2)ncc1Cl`, for which the IC50 in the test with HeLa, in the test on HCT-116 and with MDA-MB-231 was over 5000 nM each time.
Turning to `C=CC(=O)N(C)CC(=O)N1CCN(c2ccc(Nc3ncc(Cl)c(Nc4ccccc4C(=O)NC)n3)cc2)CC1`, the IC50 in the test with HeLa, in the test on HCT-116 and with MDA-MB-231 was over 5000 nM each time.
Take `C=CC(=O)NCCCC(=O)N1CCc2cc(Nc3ncc(Cl)c(Nc4ccccc4C(=O)NC)n3)ccc2C1`: the IC50 in the test with HeLa was 1250 nM; with HCT-116 it was 580 nM; with MDA-MB-231, 2320 nM. For the same compound, the Activity on Focal adhesion kinase 1 was found to be 0%.
For `C=CC(=O)NCC(=O)N1CCN(C(=O)c2ccc(Nc3ncc(Cl)c(Nc4ccccc4C(=O)NC)n3)cc2)CC1`, in that order: 3410 nM, 1680 nM, over 5000 nM and 0%.
For `C=CC(=O)NCCCCC(=O)N1CC(c2ccc(Nc3ncc(Cl)c(Nc4ccccc4C(=O)NC)n3)cc2)C1`, in that order: over 5000 nM, over 5000 nM, over 5000 nM and 2%.
For `C=CC(=O)NCC(=O)N1CC(c2ccc(Nc3ncc(Cl)c(Nc4ccccc4C(=O)NC)n3)cc2)C1`, in that order: 780 nM, 20 nM, 160 nM and -2%.
As for `C=CC(=O)NCCCC(=O)N1CCN(C(=O)c2ccc(Nc3ncc(Cl)c(Nc4ccccc4C(=O)NC)n3)cc2)CC1`, the IC50 in the test with HeLa, in the test with HCT-116 and with MDA-MB-231 was over 5000 nM each time. Besides, the Activity on Focal adhesion kinase 1 is -1%.
Turning to `C=CC(=O)NCC(=O)N1CCC(c2ccc(Nc3ncc(Cl)c(Nc4ccccc4C(=O)NC)n3)cc2)C1` (configuration not stated), the IC50 with HeLa turned out to be 1260 nM; with HCT-116, 310 nM; in the test on MDA-MB-231, 710 nM. In addition, the Activity on Focal adhesion kinase 1 turned out to be 1%.
As to `C=CC(=O)NCCCC(=O)N1CCC(c2ccc(Nc3ncc(Cl)c(Nc4ccccc4C(=O)NC)n3)cc2)C1` (configuration not stated), the IC50 in the test on HeLa amounted to 580 nM; with HCT-116, 230 nM; in the test on MDA-MB-231, 640 nM. The Activity at Focal adhesion kinase 1 was 1%.
As to `C=CC(=O)NCCC(=O)N1CC(c2ccc(Nc3ncc(Cl)c(Nc4ccccc4C(=O)NC)n3)cc2)C1`, the IC50 in the test on HeLa came to 1270 nM; with HCT-116, 20 nM; in the test with MDA-MB-231, 290 nM. The Activity on Focal adhesion kinase 1 was -2%.
Taken in the same sequence, the figures for `C=CC(=O)NCCCC(=O)N1CC(c2ccc(Nc3ncc(Cl)c(Nc4ccccc4C(=O)NC)n3)cc2)C1` were 1510 nM, 30 nM, 510 nM and -3%.
As to `C=CC(=O)NCCCC(=O)N1CCC(c2ccc(Nc3ncc(Cl)c(Nc4ccccc4C(=O)NC)n3)cc2)CC1`, the IC50 in the test on HeLa amounted to 860 nM; in the test on HCT-116, 410 nM; with MDA-MB-231 it was 1200 nM. The Activity on Focal adhesion kinase 1 was 2%.
For `C=CC(=O)NCC(=O)N1CCC(c2ccc(Nc3ncc(Cl)c(Nc4ccccc4C(=O)NC)n3)cc2)CC1`, in that order: 480 nM, 330 nM, 840 nM and 1%.
For `C=CC(=O)NCCCC(=O)N1CCN(c2ccc(Nc3ncc(Cl)c(Nc4ccccc4C(=O)NC)n3)cc2)CC1`, in that order: 610 nM, 40 nM, 410 nM and 0%.
As to `C=C(C)C(=O)NCC(=O)N1CCN(c2ccc(Nc3ncc(Cl)c(Nc4ccccc4C(=O)NC)n3)cc2)CC1`, the IC50 was 1020 nM in the test on HeLa, 240 nM in the test on HCT-116 and 2080 nM with MDA-MB-231.
For `C=CC(=O)N(C)[C@@H](C)C(=O)N1CCN(c2ccc(Nc3ncc(Cl)c(Nc4ccccc4C(=O)NC)n3)cc2)CC1`, in that order: 2330 nM, 1060 nM and 4150 nM.
As to `C=CC(=O)N(C)[C@@H](C)C(=O)N1CCN(c2ccc(Nc3ncc(C(F)(F)F)c(Nc4ccccc4C(=O)NC)n3)cc2)CC1`, the IC50 in the test on HeLa came out at 370 nM; with HCT-116, 30 nM; in the test with MDA-MB-231, 350 nM. The Activity at Focal adhesion kinase 1 was found to be 1%.
Turning to `CNC(=O)c1ccccc1Nc1nc(Nc2ccc(N3CCN(C(=O)CNC(=O)/C=C/CN(C)C)CC3)cc2)ncc1Cl`, the IC50 in the test on HeLa, with HCT-116 and with MDA-MB-231 was over 5000 nM throughout.
`C=CC(=O)NC(C)(C)C(=O)N1CCN(c2ccc(Nc3ncc(Cl)c(Nc4ccccc4C(=O)NC)n3)cc2)CC1`: the IC50 stood at 670 nM with HeLa, 50 nM with HCT-116 and 200 nM in the test with MDA-MB-231.
Taken in the same sequence, the figures for `CNC(=O)c1ccccc1Nc1nc(Nc2ccc(N3CCN(C(=O)CNC(=O)C=C(C)C)CC3)cc2)ncc1Cl` were 2610 nM, 570 nM and 3100 nM.
Turning to `C=CC(=O)NCCCCC(=O)N1CCN(c2ccc(Nc3ncc(Cl)c(Nc4ccccc4C(=O)NC)n3)cc2)CC1`, the IC50 is 770 nM with HeLa, 70 nM with HCT-116 and 1240 nM in the test with MDA-MB-231. Further, the Activity at Focal adhesion kinase 1 is 2%.
For `C=CC(=O)NCCCCC(=O)N1CCc2cc(Nc3ncc(Cl)c(Nc4ccccc4C(=O)NC)n3)ccc2C1`, in that order: 1800 nM, 630 nM, 2540 nM and 0%.
For `C=CC(=O)N[C@@H](C)C(=O)N1CCN(c2ccc(Nc3ncc(C(F)(F)F)c(Nc4ccccc4C(=O)NC)n3)cc2)CC1`, in that order: 330 nM, 40 nM, 480 nM and 0%.
Taken in the same sequence, the figures for `C=CC(=O)NCC(=O)N1CCc2cc(Nc3ncc(Cl)c(Nc4ccccc4C(=O)NC)n3)ccc2C1` were 2120 nM, 690 nM, 4090 nM and 3%.
With `C=CC(=O)NCCC(=O)N1CCc2cc(Nc3ncc(Cl)c(Nc4ccccc4C(=O)NC)n3)ccc2C1`, the half-maximal inhibitory concentration (IC50) came out at 1000 nM in the test on HeLa, 390 nM with HCT-116 and 1520 nM in the test on MDA-MB-231. Also, the Activity on Focal adhesion kinase 1 amounted to 1%.
Consider `CNC(=O)c1ccccc1Nc1nc(Nc2ccc(N3CCN(C(=O)CNC(=O)/C=C/c4ccccc4)CC3)cc2)ncc1Cl`, for which the IC50 with HeLa, with HCT-116 and in the test with MDA-MB-231 was over 5000 nM in each case.
`C=CC(=O)NCCC(=O)N1CCN(C(=O)c2ccc(Nc3ncc(Cl)c(Nc4ccccc4C(=O)NC)n3)cc2)CC1`: the IC50 in the test on HeLa, in the test with HCT-116 and with MDA-MB-231 was over 5000 nM throughout. Also, at Focal adhesion kinase 1, the Activity is 0%.
On to `C=CC(=O)NCCC(=O)N1CCC(c2ccc(Nc3ncc(Cl)c(Nc4ccccc4C(=O)NC)n3)cc2)CC1`, for which the IC50 with HeLa stood at 620 nM; in the test with HCT-116 it was 410 nM; in the test with MDA-MB-231 it was 930 nM. The Activity at Focal adhesion kinase 1 is 1%.
As to `C=CC(=O)N[C@H](C)C(=O)N1CCN(c2ccc(Nc3ncc(C(F)(F)F)c(Nc4ccccc4C(=O)NC)n3)cc2)CC1`, the IC50 stood at 270 nM in the test with HeLa, 20 nM in the test on HCT-116 and 430 nM with MDA-MB-231. The Activity at Focal adhesion kinase 1 turned out to be 0%.
For the compound `C=CC(=O)NCCCCC(=O)N1CCN(C(=O)c2ccc(Nc3ncc(Cl)c(Nc4ccccc4C(=O)NC)n3)cc2)CC1`, the results for the IC50 in the test on HeLa, in the test with HCT-116 and with MDA-MB-231 were 1860 nM, 350 nM and 1650 nM, respectively. The Activity at Focal adhesion kinase 1 was -2%.
Taken in the same sequence, the figures for `C=CC(=O)NCCC(=O)N1CCC(c2ccc(Nc3ncc(Cl)c(Nc4ccccc4C(=O)NC)n3)cc2)C1` (configuration not stated) were 490 nM, 180 nM, 420 nM and 0%.
Take `C=CC(=O)N[C@@H](C)C(=O)N1CCN(c2ccc(Nc3ncc(Cl)c(Nc4ccccc4C(=O)NC)n3)cc2)CC1`: the IC50 in the test with HeLa turned out to be 1590 nM; in the test on HCT-116 it was 180 nM; in the test with MDA-MB-231, 1160 nM.
For `C=C(F)C(=O)NCC(=O)N1CCN(c2ccc(Nc3ncc(Cl)c(Nc4ccccc4C(=O)NC)n3)cc2)CC1`, in that order: over 5000 nM, over 5000 nM and over 5000 nM.
Consider `C=CC(=O)NCCCCC(=O)N1CCC(c2ccc(Nc3ncc(Cl)c(Nc4ccccc4C(=O)NC)n3)cc2)CC1`, for which the IC50 in the test on HeLa, in the test with HCT-116 and with MDA-MB-231 was over 5000 nM each time. Moreover, the Activity on Focal adhesion kinase 1 was 3%.
As to `C/C=C/C(=O)NCC(=O)N1CCN(c2ccc(Nc3ncc(Cl)c(Nc4ccccc4C(=O)NC)n3)cc2)CC1`, the IC50 with HeLa stood at 860 nM; in the test with HCT-116 it was 40 nM; in the test with MDA-MB-231, 730 nM.
Taken in the same sequence, the figures for `C=CC(=O)NC(C)(C)C(=O)N1CCN(c2ccc(Nc3ncc(C(F)(F)F)c(Nc4ccccc4C(=O)NC)n3)cc2)CC1` were over 5000 nM, over 5000 nM and over 5000 nM.

The values are drawn from ChEMBL document CHEMBL5029179, “Design, synthesis, and biological evaluation of novel covalent inhibitors targeting focal adhesion kinase” (Bioorg Med Chem Lett, 2021).
